Data on 34 compounds can be found in US8309721B2, “HSP90 inhibitory carbazole derivatives, compositions containing same and use thereof” (Sanofi, priority 2008, dated 2012).

The experiment concerns Her2 receptor expression at the surface of SKBr3 cells. Briefly: phenotypic SKBr3/HER2 cell test (Her2 surface expression by flow cytometry). Type of experiment: cell-based. The following applies: inhibition of Her2 expression. The protocol:
The cellular activity of the compounds can in particular be evaluated by means of the phenotypic “SKBr3/HER2” cell test described below:
The SKBr3 […] adenocarcinoma cells, overexpressing the Her2 tyrosine kinase receptor, originate from the ATCC (HTB-30) and are cultured in McCoy's 5A medium supplemented with 10% FBS and 1% L-glutamine.
The cells are seeded in 12-well plates at a proportion of 125 000 cells per well in 1 ml of complete medium. The following day, the products are added at varying concentrations. After incubation for 24 h, the cells are trypsinized, washed with PBS and incubated with 100 ng of anti-Her2 antibody coupled to PE (Phycoerythrin) (BD 340552) for 30 minutes at 4° C. in the dark. The fluorescence due to the expression of the Her2 receptor at the surface of the cells is then read using a FACS Calibur flow cytometer (Becton-Dickinson). The percentage inhibition of Her2 expression as a function of the concentrations of product tested is fitted by the nonlinear regression technique (XLfit, equation 205) in order to measure an IC50 for each product.

Setting [1] is: Homo sapiens, SK-BR-3, 24 h incubation.

As for `NC(=O)c1ccc(-n2c3ccccc3c3c(-c4nc5ccc(F)cc5[nH]4)cccc32)cc1NCc1ccccn1` [Example 81, 4-[4-(6-fluoro-1H-benzimidazol-2-yl)-9H-carbazol-9-yl]-2-[(pyridin-2-ylmethyl)amino]benzamide], the IC50 (commonly the midpoint of a concentration-inhibition curve) under setting [1] was less than 1000 nM. On the same count and under the same terms, the same measure for `NC(=O)c1cnc(-n2c3ccccc3c3c(-c4cnc5ccccc5c4)cccc32)cc1N[C@H]1CC[C@H](O)CC1` [Example 142, 2-[4-(quinolin-3-yl)-9H-carbazol-9-yl]-4-(4-trans-hydroxycyclohexylamino)pyridine-5-carboxamide]: less than 1000 nM; for `CN1C(C)(C)CC(Nc2cc(-n3c4ccccc4c4c(-c5nc6ccc(F)cc6[nH]5)cccc43)ccc2C(N)=O)CC1(C)C` [Example 85, 4-[4-(6-fluoro-1H-benzimidazol-2-yl)-9H-carbazol-9-yl]-2-(1,2,2,6,6-pentamethyl-1H-piperidin-4-ylamino]benzamide]: less than 1000 nM; for `N#Cc1ccc(-c2cccc3c2c2ccccc2n3-c2ccc(C(N)=O)c(NCCF)c2)cn1` [Example 134, 4-[4-(6-cyanopyridin-3-yl)-9H-carbazol-9-yl]-2-[(2-fluoroethyl)amino]benzamide]: less than 1000 nM. `NC(=O)c1ccc(-n2c3ccccc3c3c(-c4cncc(O)c4)cccc32)cc1NCCCO` [Example 141, 2-[(3-hydroxypropyl)amino]-4-[4-(5-hydroxypyridin-3-yl)-9H-carbazol-9-yl]benzamide] showed an IC50 under setting [1] of less than 1000 nM.

In turn, `NC(=O)c1ccc(-n2c3ccccc3c3c(-c4nc5ccc(F)cc5[nH]4)cccc32)cc1N[C@H]1CCCC[C@@H]1CO` (racemic) [Example 97] had an IC50 under setting [1] of less than 1000 nM. Same read-out and setting: to `NC(=O)c1ccc(-n2c3ccccc3c3c(-c4nc5cc(F)ccc5[nH]4)cccc32)cc1N[C@H]1CCCC[C@@H]1CO` (single isomer, unassigned) [Example 130] belongs less than 1000 nM; to `COCCCOc1cc(-n2c3ccccc3c3c(-c4nc5ccc(F)cc5[nH]4)cccc32)ccc1C(N)=O` [Example 60, 4-[4-(6-fluoro-1H-benzimidazol-2-yl)-9H-carbazol-9-yl]-2-(3-methoxypropoxy)benzamide], 1000 to 10000 nM. The same measure, in the same setting: to `CN1C(C)(C)CC(Nc2cc(-n3c4ccccc4c4c(-c5cnc6ccccc6c5)cccc43)ccc2C(N)=O)CC1(C)C` [Example 88, (1,2,2,6,6-pentamethyl-1H-piperidin-4-ylamino]-4-[4-(quinolin-3-yl)-9H-carbazol-9-yl]-2-benzamide] belongs less than 1000 nM. Under “24 h incubation”, `NC(=O)c1ccc(-n2c3ccccc3c3c(-c4nc5cc(F)ccc5[nH]4)cccc32)cc1N[C@H]1CCCC[C@@H]1CO` (single isomer, unassigned) [Example 131] came in with an IC50 of less than 1000 nM. On to `NC(=O)c1ccc(-n2c3ccccc3c3c(-c4cnc5ccccc5c4)cccc32)cc1NCCF` [Example 77, 2-(2-fluoroethylamino)-4-[4-(quinolin-3-yl)-9H-carbazol-9-yl]benzamide], for which the IC50 under setting [1] was less than 1000 nM. In the case of `NC(=O)c1ccc(-n2c3ccccc3c3c(-c4nc5ccc(F)cc5[nH]4)cccc32)cc1NCC1(O)CCCC1` [Example 111, 4-[4-(6-fluoro-1H-benzimidazol-2-yl)-9H-carbazol-9-yl]-2-[(1-hydroxycyclopentan-1-yl)methylamino]benzamide], the IC50 under setting [1] is less than 1000 nM. Under setting [1], `NC(=O)c1ncc(-n2c3ccccc3c3c(-c4cnc5ccccc5c4)cccc32)cc1NC1CCOCC1` [Example 116] showed an IC50 of less than 1000 nM.

Turning to `NC(=O)c1ncc(-n2c3ccccc3c3c(-c4cnc5ccccc5c4)cccc32)cc1NCCc1ccccn1` [Example 133, 3-[(2-pyridin-2-yl)ethylamino)-5-[4-(quinolin-3-yl)-9H-carbazol-9-yl]pyridine-2-carboxamide], the IC50 under setting [1] was less than 1000 nM. On the same count and under the same terms, the same measure for `CN1CCC(O)(CNc2cc(-n3c4ccccc4c4c(-c5nc6ccc(F)cc6[nH]5)cccc43)ccc2C(N)=O)CC1` [Example 102, [4-(6-fluoro-1H-benzimidazol-2-yl)-9H-carbazol-9-yl]-2-[(4-hydroxy-1-methylpiperidin-4-ylmethyl)amino]benzamide]: 1000 to 10000 nM; for `Cn1cc(CNc2cc(-n3c4ccccc4c4c(-c5nc6ccc(F)cc6[nH]5)cccc43)ccc2C(N)=O)cn1` [Example 115, 4-[4-(6-fluoro-1H-benzimidazol-2-yl)-9H-carbazol-9-yl]-2-[(1-methyl-1H-pyrazol-4-yl)methylamino]benzamide]: less than 1000 nM. The same measure, in the same setting: the same measure for `NC(=O)c1ccc(-n2c3ccccc3c3c(-c4cnc5ccccc5c4)cccc32)cc1NC1CCCC(O)C1` [Example 109, 2-(3(R,S)-hydroxycyclohexyl-1(R,S)-amino)-4-[4-(quinolin-3-yl)-9H-carbazol-9-yl]benzamide]: less than 1000 nM; for `CN1C2CCC1CC(Nc1cc(-n3c4ccccc4c4c(-c5ccc(C#N)nc5)cccc43)ccc1C(N)=O)C2` (stereo not shown) [Example 135, 4-[4-(6-cyanopyridin-3-yl)-9H-carbazol-9-yl]-2-[(8-methyl-8-azabicyclo[3.2.1]oct-3-yl)amino]benzamide]: less than 1000 nM; for `NC(=O)c1ccc(-n2c3ccccc3c3c(-c4nc5ccc(F)cc5[nH]4)cccc32)cc1N[C@H]1CN2CCC1CC2` [Example 98, 2-{(R)-(1-azabicyclo[2.2.2]oct-3-yl)amino}-4-[4-(6-fluoro-1H-benzimidazol-2-yl)-9H-carbazol-9-yl]benzamide]: less than 1000 nM.

Compound `CN1C(C)(C)CC(Nc2cc(-n3c4ccccc4c4c(-c5cnc6ccccc6c5)cccc43)cnc2C(N)=O)CC1(C)C` [Example 122] showed an IC50 under setting [1] of less than 1000 nM. On the same count and under the same terms, the same measure for `NC(=O)c1ccc(-n2c3ccccc3c3c(-c4nc5ccc(F)cc5[nH]4)cccc32)cc1NC1CCCC(O)C1` [Example 89, 4-[4-(6-fluoro-1H-benzimidazol-2-yl)-9H-carbazol-9-yl]-2-(3(R,S)-hydroxycyclohexyl-1(R,S)-amino)benzamide]: less than 1000 nM; for `NC(=O)c1ccc(-n2c3ccccc3c3c(-c4cnc5ccccc5c4)cccc32)cc1NC1CCOCC1` [Example 113]: less than 1000 nM. Take `NC(=O)c1ccc(-n2c3ccccc3c3c(-c4ccc(C(F)(F)F)nc4)cccc32)cc1N[C@H]1CC[C@H](O)CC1` [Example 74, 2-[(4-trans-hydroxycyclohexyl)amino]-4-{4-[6-(trifluoromethyl)pyridin-3-yl]-9H-carbazol-9-yl}benzamide]: the IC50 under setting [1] fell in the range of 1000 to 10000 nM. Consider `NC(=O)c1ccc(-n2c3ccccc3c3c(-c4cnc5ccccc5c4)cccc32)cc1NCC1(O)CC1` [Example 121, 4-[4-(quinolin-3-yl)-9H-carbazol-9-yl]-2-[(1-hydroxycyclopropan-1-yl)methylamino]benzamide], for which the IC50 under setting [1] was less than 1000 nM. Still for that read-out and setting: the same measure for `NC(=O)c1ccc(-n2c3ccccc3c3c(-c4nc5ccc(F)cc5[nH]4)cccc32)cc1NCC1(O)CC1` [Example 114, 4-[4-(6-fluoro-1H-benzimidazol-2-yl)-9H-carbazol-9-yl]-2-[(1-hydroxycyclopropan-1-yl)methylamino]benzamide]: less than 1000 nM.

Turning to `NC(=O)c1ccc(-n2c3ccccc3c3c(-c4cncc(O)c4)cccc32)cc1N[C@H]1CC[C@H](O)CC1` [Example 73, 2-[(4-trans-hydroxycyclohexyl)amino]-4-[4-(5-hydroxypyridin-3-yl)-9H-carbazol-9-yl]benzamide], the IC50 under setting [1] was less than 1000 nM.

As to `NC(=O)c1ccc(-n2c3ccccc3c3c(-c4cnc5ccccc5c4)cccc32)cc1NCc1cocn1` [Example 94, 2-[(oxazol-4-ylmethyl)amino]-4-[4-(quinolin-3-yl)-9H-carbazol-9-yl]benzamide], under setting [1], the IC50 is less than 1000 nM.

Consider `NCC(=O)O[C@H]1CC[C@H](Nc2cc(-n3c4ccccc4c4c(-c5cnc6ccccc6c5)cccc43)cnc2C(N)=O)CC1` [Example 128, aminoacetic acid 4-trans-{[2-carbamoyl-5-(quinolin-3-yl)-9H-carbazol-9-yl]pyridin-3-ylamino}cyclohexyl ester], for which, under setting [1], the IC50 is less than 1000 nM.

As for `NC(=O)c1ccc(-n2c3ccccc3c3c(-c4nc5ccc(F)cc5[nH]4)cccc32)cc1NCc1cccnc1` [Example 104, 4-[4-(6-fluoro-1H-benzimidazol-2-yl)-9H-carbazol-9-yl]-2-[(pyridin-3-ylmethyl)amino]benzamide], under setting [1], the IC50 was less than 1000 nM. Still for that read-out and setting: to `NC(=O)c1ccc(-n2c3ccccc3c3c(-c4nc5ccc(F)cc5[nH]4)cccc32)cc1NCCn1ccnc1` [Example 82, 4-[4-(6-fluoro-1H-benzimidazol-2-yl)-9H-carbazol-9-yl]-2-[2-(1H-imidazol-1-yl]ethylamino]benzamide] belongs less than 1000 nM; to `NC(=O)c1ncc(-n2c3ccccc3c3c(-c4nc5ccc(F)cc5[nH]4)cccc32)cc1NC1CCOCC1` [Example 136], less than 1000 nM. Same read-out and setting: to `NC(=O)c1ccc(-n2c3ccccc3c3c(-c4nc5ccc(F)cc5[nH]4)cccc32)cc1NCc1cocn1` [Example 92, 4-[4-(6-fluoro-1H-benzimidazol-2-yl)-9H-carbazol-9-yl]-2-[(oxazol-4-ylmethyl)amino]benzamide] belongs less than 1000 nM; to `Cn1cnc(CCNc2cc(-n3c4ccccc4c4c(-c5nc6ccc(F)cc6[nH]5)cccc43)ccc2C(N)=O)c1` [Example 117, 4-[4-(6-fluoro-1H-benzimidazol-2-yl)-9H-carbazol-9-yl]-2-[(1-methyl-1H-imidazol-4-yl)ethylamino]benzamide], less than 1000 nM.

As to `NC(=O)c1ccc(-n2c3ccccc3c3c(-c4cnc5ccccc5c4)cccc32)cc1NC[C@@H]1CCCC[C@@H]1O` (racemic) [Example 95], under setting [1], the IC50 was less than 1000 nM.
